These results are taken from patent US6333176A (Degussa Aktiengesellschaft, priority 1994, dated 2001).

Test [1] deals with T1, peptide amidase from Xanthomonas maltophilia (Stenotrophomonas maltophilia, UniProt Q8RJN5).
T1 construct: wild type, not recombinant
T1 sequence (Q8RJN5 34-540): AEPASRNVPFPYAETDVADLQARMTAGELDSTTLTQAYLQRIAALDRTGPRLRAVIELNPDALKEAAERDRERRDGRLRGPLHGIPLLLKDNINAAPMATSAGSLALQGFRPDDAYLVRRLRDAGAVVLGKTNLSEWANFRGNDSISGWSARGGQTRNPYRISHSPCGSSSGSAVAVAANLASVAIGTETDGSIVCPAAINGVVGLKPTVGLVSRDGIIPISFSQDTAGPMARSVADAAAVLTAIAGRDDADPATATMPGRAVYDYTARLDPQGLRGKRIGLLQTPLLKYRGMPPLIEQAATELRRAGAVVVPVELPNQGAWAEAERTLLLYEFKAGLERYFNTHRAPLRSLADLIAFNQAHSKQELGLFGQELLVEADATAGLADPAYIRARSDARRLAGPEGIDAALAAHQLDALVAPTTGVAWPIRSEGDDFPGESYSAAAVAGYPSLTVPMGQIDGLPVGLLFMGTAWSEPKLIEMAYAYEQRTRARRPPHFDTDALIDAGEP
As to the kind of experiment: biochemical. The format is biochemical. The settings on record: for remaining activity at 10000 µM: read-out: residual activity.

For test [2], the target named is T1, peptide amidase from Xanthomonas maltophilia. As to the kind of experiment: Splitting of racemic mixtures of N-protected amino acid amides. The format is biochemical. The settings on record: racemic substrate 10 mM, 20 U peptide amidase in 50 ml, 50 mM triethylammonium carbonate pH 7.5, 30° C. Here is the method: The tests for the splitting [separation] of racemic mixtures took place in 50 mM triethylammonium carbonate buffer, pH 7.5. The test batches a 50 ml with 20 U peptide amidase each were incubated at 30° C. Z-D,L-Ala-NH2, Ac-D,L-Met-NH2 and Ac-D,L-neopentylglycine amide (Ac-D,L-Npg-NH2) were available as substrates. The concentration of the substrates in the reaction batch was 10 mM. Specimens were taken at different times, the reaction stopped by heating for 5 minutes at 95° C. and the enantiomeric purity examined with HPLC.

The target is the same in test [3]. As to the kind of experiment: Enzymatic conversion of unprotected amino acid amides, thin-layer chromatography. The format is biochemical. The settings on record: substrate 10 mM. As to the method: (§1) 18 mU of peptide amidase (purification state after the gel filtration) per ml test batch was used for the substrate spectrum of peptide amidase from Xanthomonas maltophilia. The concentration of the tested substrates was 10 mM in the reaction batch. Unless otherwise indicated, L-amino acid derivatives were used. The incubation took place in 50 mM tris/HCl, pH 7.5 at 30° C. for 3 hours. The reaction was stopped by heating for 5 minutes at 95° C. The determination of activity took place using enzymatic determination of the released ammonia (Bergmeyer, U. (1985): Methods of Enzymatic Analysis, p. 459, VCH Verlagsgesellschaft, Weinheim).
The following thin-layer chromatographic methods were used for the analysis of the substrates and products cited in table 4d. To this end 1 μl of the stopped reaction batch was applied.

The subject of another test is Xanthomonas maltophilia. As to the kind of experiment: Inducibility of peptide amidase from Xanthomonas maltophilia. The format is cell-based. The settings on record: for Activity (peptide amidase in raw extract) / Spec. activity (peptide amidase in raw extract): additive in the nutrient medium (amide 0.5%), 2 days, 30° C., 120 rpm. Here is the method:
1 l Erlenmeyer flasks were provided with 200 ml of the nutrient medium used in the second part of the screening for the examinations of the inducibility of peptide amidase from Xanthomonas maltophilia. The amount of yeast extract was raised to 0.1% thereby and only one amide derivative added to 0.5% of the medium in each instance. In addition, media without the addition of amides and with 1.5% yeast extract were examined. Ac-DL-Met-NH2, leucine amide and carnitine amide were used as amides. The flasks were inoculated to 0.5% and agitated 2 days at 30° C. and 120 rpm. The obtention of the raw extracts took place as already described above.

For test [4], the target named is T1, peptide amidase from Xanthomonas maltophilia. The experiment in a line: Substrate spectrum of peptide amidase, enzymatic determination of the released ammonia. The format is biochemical. The settings on record: substrate 10 mM, 18 mU peptide amidase per ml, 50 mM tris/HCl pH 7.5, 30° C., 3 hours. As to the method: as §1
The target is the same in test [5]. As to the kind of experiment: Influence of solvents on the peptide amidase activity. The format is biochemical. The settings on record: pH 7.5, 90 minutes, 30° C. As to the method:
200 μl enzyme solution (59 μg BSAeq/ml, purification stage after the gel filtration) were compounded in each instance with 700 μl of an appropriate mixture of 50 mM tris/solvent, pH 7.5 for the examinations of the influence of solvents on the peptide amidase activity. Dimethylformamide (DMF), acetone, ethanol and propan-1-ol, which were present in the reaction batch up to 70% by volumetric amount, were tested as solvents. The reaction was started by adding substrate Z-Gly-Tyr-NH2. The incubation took place for 90 minutes at 30° C. Then, aliquots of 100 μl of the reaction batches were provided with 100 μl glacial acetic acid and the enzyme activity determined as described in 1.4. […] It is apparent that at 20% DMF, 94% residual activity is still present and even at 30%, 59% is still present. In the presence of other solvents such as […] the enzyme distinctly loses activity but is nevertheless not completely inactivated at a content of 10% (residual activity 30%).

Where [6] appears, read: potential inhibitor 10 mM in the test, preincubation 1 h 30° C., Z-Gly-Tyr-NH2 10 mM, 2.5 h.

Read-outs that look alike come from different tables or passages of the source.

In the case of `c1ccc(-c2ccccn2)nc1` [2,2'-dipyridyl], the remaining activity at 10000 µM in test [1] (setting [6]) worked out at 97%.

For the molecule `O=C(O)CN(CCN(CC(=O)O)CC(=O)O)CC(=O)O` [EDTA], in test [1], the remaining activity at 10000 µM amounted to 96%.

As to `CSCC[C@H](NC(C)=O)C(=O)O` [Ac-L-Met-OH], the “enantiomeric purity examined with HPLC (share of the enantiomer in the acid product)” value (“enantiomeric purity examined with HPLC” below) in test [2] is listed as 99.7-99.8%.

For the molecule `NC(=O)[C@@H](N)Cc1ccccc1` [H-Phe-NH2], in test [3], the “Conversion (unprotected amino acid amides)” value is listed as 0 and the “Conversion (unprotected amino acid amides, Table 4d)” value worked out at 0.

Consider `NCCCC[C@H](N)C(N)=O` [H-Lys-NH2], for which, in test [3], the “Conversion (unprotected amino acid amides)” value was determined as 0 and the “Conversion (unprotected amino acid amides, Table 4d)” value was found to be 0.

For the molecule `C[C@@H](NC(=O)OCc1ccccc1)C(=O)O` [Z-D-Ala-OH], the “enantiomeric purity examined with HPLC” value in test [2] worked out at 0.4%.

With `NC(=O)[C@@H](N)Cc1c[nH]c2ccccc12` [H-Trp-NH2], in test [3], the “Conversion (unprotected amino acid amides)” value is listed as 0 and the “Conversion (unprotected amino acid amides, Table 4d)” value is 0.

With `c1cnc2c(c1)ccc1cccnc12` [1,10-phenanthroline], the remaining activity at 10000 µM in test [1] (setting [6]) was 92%.

As to `C[C@@H](O)[C@H](N)C(N)=O` [H-Thr-NH2], in test [3], the “Conversion (unprotected amino acid amides)” value came to 0 and the “Conversion (unprotected amino acid amides, Table 4d)” value stood at 0.

Turning to `CSCC[C@H](N)C(N)=O` [H-Met-NH2], in test [3], the “Conversion (unprotected amino acid amides)” value is on record as 0 and the “Conversion (unprotected amino acid amides, Table 4d)” value worked out at 0.

On to `C[C@H](NC(=O)OCc1ccccc1)C(=O)O` [Z-L-Ala-OH], for which, in test [2], the “enantiomeric purity examined with HPLC” value stood at 99.6%.

Consider `CC(C)C[C@H](N)C(N)=O` [Leu-NH2, leucine amide], for which, in the test on Xanthomonas maltophilia, the “Activity (peptide amidase in raw extract)” value is 15 mU/ml and the “Spec. activity (peptide amidase in raw extract)” value (“Spec. activity” for short) worked out at 3 mU/mg BSAeq.

Take `CC(C)C[C@@H](N)C(N)=O` [H-D-Leu-NH2]: in test [3], the “Conversion (unprotected amino acid amides)” value is recorded as 0 and the “Conversion (unprotected amino acid amides, Table 4d)” value worked out at 0.

Turning to `NC(=O)[C@@H](N)CO` [H-Ser-NH2], in test [3], the “Conversion (unprotected amino acid amides)” value was found to be 0 and the “Conversion (unprotected amino acid amides, Table 4d)” value stood at 0.

In the case of `CSCCC(NC(C)=O)C(N)=O` (racemic) [Ac-D,L-Met-NH2, N-Ac-D,L-methionine amide], in the test on Xanthomonas maltophilia, the “Activity (peptide amidase in raw extract)” value turned out to be 88 mU/ml and the “Spec. activity” value came out at 13 mU/mg BSAeq. Also, the “change of the specific activity by addition of the inductor” value in the test on Xanthomonas maltophilia (compared with medium without additive) was “doubled to tripled”. In test [4], the “Relative conversion (conversion of N-acetyl amino acid amides, Table 4b)” value is reported as 102%; the “Relative conversion (influence of protective group and adjacent amino acid, Table 4c)” value is 102%.

For the molecule `NC(=O)[C@@H](N)Cc1ccc(O)cc1` [H-Tyr-NH2], in test [3], the “Conversion (unprotected amino acid amides)” value was 0 and the “Conversion (unprotected amino acid amides, Table 4d)” value amounted to 0.

With `NNC(N)=O` [Semicarbazide], the remaining activity at 10000 µM in test [1] (setting [6]) was 99%.

As for `CC(=O)N[C@@H](CC(C)(C)C)C(=O)O` [Ac-L-Npg-OH, N-acetyl-L-neopentylglycine], the “enantiomeric purity examined with HPLC” value in test [2] turned out to be 99.8%.

Regarding `CCCCC[C@H](CC(=O)NO)C(=O)N[C@H](C(=O)N1CCC[C@H]1CO)C(C)C` [Actinonine], the remaining activity at 10000 µM in test [1] (setting [6]) was found to be 106%.

Consider `C[C@@H](N)C(N)=O` [H-D-Ala-NH2], for which, in test [3], the “Conversion (unprotected amino acid amides)” value turned out to be 0 and the “Conversion (unprotected amino acid amides, Table 4d)” value is 0.

What is called residual activity is the signal under treatment as a percentage of the control signal. With `O.O.O.O.O.O.[Cl][Hg][Cl]` [HgCl2 *6 H2 O], the residual activity in test [1] (setting [6]) is given as 67%.

`O.O.O.O.O.O.[Cl][Ni][Cl]` [NiCl2 *6 H2 O]: the residual activity in test [1] (setting [6]) came to 93%.

Consider `CC(=O)N[C@H](CC(C)(C)C)C(=O)O` [Ac-D-Npg-OH], for which the “enantiomeric purity examined with HPLC” value in test [2] stood at 0.2%.

As to `O[C@H](CS)[C@H](O)CS` (relative stereo) [1,4-dithio-D,L-threitol], the remaining activity at 10000 µM in test [1] (setting [6]) amounted to 96%.

Take `CC[C@H](C)[C@H](N)C(N)=O` [H-Ile-NH2]: in test [3], the “Conversion (unprotected amino acid amides)” value worked out at 0 and the “Conversion (unprotected amino acid amides, Table 4d)” value is recorded as 0.

Consider `N[C@@H]1CONC1=O` [D-cycloserine], for which, in test [1] (setting [6]), the remaining activity at 10000 µM stood at 100%.

`N=C(N)NCCC[C@H](N)C(N)=O` [H-arg-NH2]: in test [3], the “Conversion (unprotected amino acid amides)” value is recorded as 0 and the “Conversion (unprotected amino acid amides, Table 4d)” value turned out to be 0.

Regarding `NCCc1ccc(S(=O)(=O)F)cc1` [Pefabloc], the “inhibition of the microbial peptide amidase (serine groups)” value in test [1] is on record as “Inhibition”. Besides, the residual activity in test [1] (inhibitor 0.3 mM, preincubation 1 h 30° C., Z-Gly-Tyr-NH2 10 mM) was 62%; in test [1] (inhibitor 0.1 Mm, preincubation 1 h 30° C., Z-Gly-Tyr-NH2 10 mM), 82%; in test [1] (setting [6]), 0%.

For `CSCC[C@@H](NC(C)=O)C(=O)O` [Ac-D-Met-OH], in test [2], the “enantiomeric purity examined with HPLC” value is given as 0.2-0.3%.

Turning to `CC(C)C[C@H](N)C(N)=O` [H-Leu-NH2], in test [3], the “Conversion (unprotected amino acid amides)” value is reported as 0 and the “Conversion (unprotected amino acid amides, Table 4d)” value turned out to be 0.

With `C[C@H](N)C(N)=O` [H-Ala-NH2], in test [3], the “Conversion (unprotected amino acid amides)” value is given as 0 and the “Conversion (unprotected amino acid amides, Table 4d)” value was 0.

As to `CC(C)[C@H](N)C(N)=O` [H-Val-NH2], in test [3], the “Conversion (unprotected amino acid amides)” value stood at 0 and the “Conversion (unprotected amino acid amides, Table 4d)” value is 0.

In the case of `O.O.O.O.O.O=S(=O)([O-])[O-].[Cu+2]` [CuSO4 *5 H2 O], the residual activity in test [1] (setting [6]) is listed as 103%.

On to `CC(C)O` [propan-2-ol], for which, in test [5] (10% solvent), the “residual activity of peptidase amidase in presence of solvent” value is reported as 30%.

Regarding `CN(C)C=O` [DMF, Dimethylformamide], the “residual activity of peptidase amidase in presence of solvent” value in test [5] (20% solvent) is given as 94%; in test [5] (30% solvent), 59%.

Take `C[N+](C)(C)CC(O)CC(N)=O` (centres unmarked) [Carnitine amide, carnitine amide]: in the test with Xanthomonas maltophilia, the “Activity (peptide amidase in raw extract)” value amounted to 30 mU/ml and the “Spec. activity” value is listed as 7 mU/mg BSAeq.

With `O.O.O.O.O.O.[Cl-].[Cl-].[Co+2]` [CoCl2 *6 H2 O], the residual activity in test [1] (setting [6]) is reported as 80%.

For the molecule `CCOC(=O)NC(CCSC)C(N)=O` (racemic) [N-Ethoxy-D,L-Met-NH2, Nα -ethoxycarbonyl-DL-methionine amide], in test [4], the “Relative conversion (influence of protective group and adjacent amino acid, Table 4c)” value is 124%.
